Data on 2 compounds can be found in patent publication US8487098B2, “Synergistic combination of flumetsulam or diclosulam with isothiazolones” (Dow Global Technologies LLC, priority 2010, dated 2013).

Assay type in all cases: cell-based
Assay [1] deals with Alternaria alternata mixed with Trichoderma viride (AaTv). Description: Fungal efficacy testing, modified ASTM 5590, paint film. Particulars: 4 weeks; for % inhibition: at the total conc given; for Total conc, ppm: minimum inhibitory concentration in paint. The procedure:
(§1) A single or blend of biocides was post added into white acrylic latex paint free of biocides to give a maximum total active ingredient/s concentration tested. This paint was then diluted with a biocide free acrylic latex paint to give targeted concentrations for the testing. Depending on the type of biocide blends tested, the total biocides concentrations varies from 200 to 5000 ppm. After biocides addition or dilution, each sample was hand mixed for at least a minute until uniformity is achieved. Each of the paint samples as well as a control sample (containing no biocide) were used to prepare films on black plastic-vinyl chloride/acetate copolymer panels (LENETA, Mahwah, N.J.) using a 3 mil (0.0762 mm) bird bar applicator. The panels were thoroughly dried for at least 2 days avoiding direct exposure to sunlight. Square discs (0.5 inch; 1.27 cm^2) were cut out from each panel and were used as the substrate for fungal and algal efficacy tests. This sample size allowed for an agar border when the sample disc was placed into the well of the test plate. Each sample was tested in duplicate
(§2) The appropriate media (BOLD'S 3N for Chlorophytes, BG-11 for Cyanobacteria, and PDA for fungi) were used to support microbial growth. The test plates were maintained at room temp (25° C.-26° C.), in a cycled light-dark environment, for four weeks for algae. Plates for fungal challenge tests were maintained at 30 C for four weeks. At the end of the incubation period the samples were scored for percent area covered by visible microbial growth.
(§3) Fungal Efficacy Testing—Modified ASTM 5590
(§4) ASTM 5590 is a standard accelerated test method for determining resistance of various coatings (including paints) to fungal defacement. To accommodate for high-throughput screening, this method was scaled down from petri plates to 6-well plates. To set up the test, an agar plug was placed at the bottom of each well of the sterile 6-well plate. A single coupon was placed with a pair of sterile forceps at the center of the agar plug (on top) with the painted surface facing upwards. Fungal inoculums were prepared by mixing equal concentrations (1×10^6 cfu/ml) and equal volumes (depending on number of samples to be tested) of like growing organisms. For Flumetsulam+various IT synergy study, three pools of mixed fungi were prepared as the test inoculum. Cladosporium herbarum was mixed with Aureobasidium pullulans; Aspergillus niger was mixed with Penicillium funiculosum and Alternaria alternata was mixed with Trichoderma viride. For Diclosulam+various IT synergy study, all above fungi were mixed as a single pool. Each well was inoculated with 400 μl of organism mixture (1×10^6 cfu/ml) making sure that the whole surface (paint film as well as the agar surrounding it) was evenly covered. The plates were incubated at 30° C. in presence of moisture, for a period of four weeks. The total percent area covered was evaluated and recorded at the end of each week after the 2nd week and recorded in increments of 5%.
(§5) Synergy Index Calculation
(§6) The SI is calculated based on F. C. Kull et.
(§7) Qa=the concentration of Biocide A in the blend
(§8) QA=The concentration of Biocide A as the only biocide
(§9) Qb=The concentration of Biocide B in the blend
(§10) QB=The concentration of Biocide B as the only biocide
(§11) SI value of <1 in the formula indicates a synergism of the blended biocides exists.
(§12) NE=no end point at the concentration tested that will meet the percent inhibition criteria set in each SI calculation

Assay [2] has as its system Aspergillus niger mixed with Penicillium funiculosum (AnPf). The description is as above. The settings on record: 4 weeks; for % inhibition: at the total conc given; for Total conc, ppm: minimum inhibitory concentration in paint. The procedure: as §1, §2, §3, §4, §5, §6, §7, §8, §9, §10, §11, §12
The subject of assay [3] is Cladosporium herbarum mixed with Aureobasidium pullulans (ApCh). Described as above. Particulars: 4 weeks; for % inhibition: at the total conc given; for Total conc, ppm: minimum inhibitory concentration in paint. As for the experimental part: as §1, §2, §3, §4, §5, §6, §7, §8, §9, §10, §11, §12
For assay [4], the system named is Chlorella sp., Chlorella kessleri, and Nostoc commune (Cs + Ck + Nc). Description: Algal efficacy testing, modified ASTM 5589, paint film. Particulars: 4 weeks; for % inhibition: at the total conc given; for Total conc, ppm: minimum inhibitory concentration in paint. As for the experimental part:
as §1, §2
(§13) Algal Efficacy Testing—Modified ASTM 5589
(§14) ASTM 5589 is a standard accelerated test method for determining resistance of various coatings (including paints) to algal defacement. To accommodate for high-throughput screening, this method was scaled down from petri plates to 6-well plates. A single coupon was placed with a pair of sterile forceps at the center of the agar plug (on top) with the painted surface facing upwards. Algal inoculums were prepared by mixing equal concentrations (1×10^6 cfu/ml) and equal volumes (depending on number of samples to be inoculated) of like growing organisms.
(§15) In Flumetsulam+various IT synergy study, three pool of mixed algae were prepared as the test inoculum, Gloeocapsa sp. and Oscillatoria sp. a mix of cyanobacteria grown on BG-11 media; Chlorella sp., Chlorella kessleri, and Nostoc commune are unicellular chlorphytes that were mixed and grown on Bold media; Trentepohlia aurea, Tretepohlia odorata, and Calotrix parientina are filamentous algae that were mixed and grown on Bold media.
(§16) Each well that contains a tested coupon was inoculated with 400 μl of organism mixture (1×10^6 cfu/ml) making sure that the whole surface (paint film as well as the agar surrounding it) was evenly covered. The plates were incubated at room temp (25° C.-26° C.) with cyclic exposure to light (OTT-Lite model #OTL4012P, 40 Watt, 26 KLumen) and dark phases, for a period of four weeks. The total area covered was evaluated at the end of each week according to percent area covered in 5% increments.
as §5, §6, §7, §8, §9, §10, §11, §12

The subject of assay [5] is Trentepohlia aurea, Tretepohlia odorata, and Calotrix parientina (Cp + To + Ta). Described as above. The settings on record: 4 weeks; for % inhibition: at the total conc given; for Total conc, ppm: minimum inhibitory concentration in paint. As for the experimental part: as §1, §2, §13, §14, §15, §16, §5, §6, §7, §8, §9, §10, §11, §12
Assay [6] deals with Gloeocapsa sp. and Oscillatoria sp. (Gs + Os). The assay is described as above. The settings on record: 4 weeks; for % inhibition: at the total conc given; for Total conc, ppm: minimum inhibitory concentration in paint. As for the experimental part: as §1, §2, §13, §14, §15
(§17) In Diclosulam+various IT synergy study, only two pools of mixed algae were prepared; Gloeocapsa sp. and Oscillatoria sp. grown on BG-11 media and Chlorella sp., Chlorella kessleri, Nostoc commune, Trentepohlia aurea, Tretepohlia odorata, and Calotrix parientina grown on Bold media
as §16, §5, §6, §7, §8, §9, §10, §11, §12

Assay [7] relates to Aa + Tv + An + Pf + Ap + Ch. Description: Fungal efficacy testing, modified ASTM 5590, paint film, single pool of all fungi. Particulars: Synergy study of Diclosulam and DCOIT, 4 weeks. The procedure: as §1, §2, §3, §4, §5, §6, §7, §8, §9, §10, §11, §12
Assay [8] concerns Cp + To + Ta + Cs + Ck + Nc. The assay is described as follows: Algal efficacy testing, modified ASTM 5589, paint film, pool grown on Bold media. Particulars: Synergy study of Diclosulam and DCOIT, 4 weeks. The procedure: as §1, §2, §13, §14, §17, §16, §5, §6, §7, §8, §9, §10, §11, §12
Where [9] appears, read: Flumetsulam:BBIT synergy study, NE=no end point.
The mark [10] stands for this setting: Flumetsulam:DCOIT synergy study.
[11] abbreviates: Synergy study of Diclosulam and DCOIT.
Setting [12] is: minimum inhibitory concentration in paint.

Structures are written as SMILES.

Regarding `CCCCn1sc2ccccc2c1=O` [BBIT, N-n-butyl-1,2-benzisothiazolin-3-one], the % inhibition – broadly, the relative decrease from the control value, in per cent – in assay [1] (Flumetsulam:BBIT synergy study) was determined as 0%; in assay [2] (Flumetsulam:BBIT synergy study), 0%; in assay [3] (Flumetsulam:BBIT synergy study) it was 80%; in assay [4] (Flumetsulam:BBIT synergy study), 0%; in assay [5] (Flumetsulam:BBIT synergy study), 0%; in assay [6] (Flumetsulam:BBIT synergy study) it was 0%. The “Total conc, ppm” value is on record as 1150 ppm in assay [1] (setting [9]); 1150 ppm in assay [2] (Flumetsulam:BBIT synergy study); 575 ppm in assay [3] (setting [9]); 1150 ppm in assay [4] (Flumetsulam:BBIT synergy study); 1150 ppm in assay [5] (setting [9]); 1150 ppm in assay [6] (Flumetsulam:BBIT synergy study).
For `CCCCCCCCn1sc(Cl)c(Cl)c1=O` [DCOIT, 4,5-dichloro-2-n-octyl-4-isothiazolin-3-one], the “% inhibition” value is 85% in assay [1] (setting [10]); 100% in assay [2] (setting [10]); 100% in assay [3] (setting [10]); 100% in assay [4] (setting [10]); 100% in assay [5] (setting [10]); 100% in assay [6] (setting [10]). For the same compound, the “% inhibition” value in assay [6] (setting [11]) is listed as 100%; in assay [7] (at the total conc given) it was 80%; in assay [8] (at the total conc given), 100%. Besides, the “Total conc, ppm” value in assay [1] (setting [10]) came out at 575 ppm; in assay [2] (setting [10]), 575 ppm; in assay [3] (setting [10]), 862.5 ppm; in assay [4] (setting [10]), 1150 ppm; in assay [5] (setting [10]), 143.75 ppm; in assay [6] (setting [10]), 143.75 ppm. The “Total conc, ppm” value in assay [6] (setting [11]), in assay [7] (setting [12]) and in assay [8] (setting [12]) was 625 ppm throughout.
